Experimental data: patent publication US20250144047A1, “PHARMACEUTICAL COMPOSITION FOR PREVENTING, AMELIORATING, OR TREATING CANCER CONTAINING 8-PARADOL” (KDBIO CORP., priority 2022, published 2025)

Assays:
RAW 264.7 cells = type: cell-based
Procedure: AGS cells were grown in RPMI medium containing 10% FBS and 1% PS. HEK293 and RAW264.7 cells were grown in DMEM medium containing 10% FBS and 1% PS under conditions of 37° C., 5% CO2 and 95% air.
In order to evaluate toxicity to each cell, the sample was incubated in each cell (1×10^5 cells/well) cultured in the above manner for 24 hours, and then cytotoxicity to each cell was examined by using the MTT assay.

AGS cells [1] = test: Live/dead cell staining of AGS cells; type: cell-based, human; conditions: 24 hours
Procedure: Live/dead cells were stained using a live/dead cell staining kit (Thermo Fisher Scientific, Rockford, IL, USA). Specifically, apoptosis was induced by processing AGS cells (2×10^5 cells/well) as a sample for 24 hours. After staining the cells for 30 minutes using the staining kit, the cells were observed using a Leica DM IRB fluorescence microscope (Wetzlar, Germany). In addition, for the colony formation assay, AGS cells were cultured at a density of 500 cells/well and then processed with the sample. Then, the cells were stained with 0.5% crystal violet (Sigma-Aldrich, St. Louis, MO, USA) for 15 minutes […], and then the stained colonies were observed and quantified using ImageJ.

AGS cells [2] = test: Mito-tracker, ROS and Mito-SOX staining; type: cell-based, human
Procedure: AGS cells (1×10^5 cells) were processed with the sample for 24 hours and then stained with a mitochondrial mito-tracker green kit (Thermo Fisher Scientific, Rockford, IL, USA). The stained cells were observed using the Leica DM IRB fluorescence microscope.
AGS cells were cultured at a density of 1×10^5 cells for 24 hours. After the sample were processed with the cultured cells, intracellular oxidative stress and superoxide were confirmed by a cell ROS/superoxide detection assay kit (Abcam, Cambridge, MA, USA). The degree of fluorescence was evaluated using the Leica DM IRB fluorescence microscope.

AGS cells [3] = test: LC3 immunofluorescence staining; type: cell-based, human
Procedure: AGS cells (1×10^5 cells) were cultured on 6-well plates and processed with samples for 24 hours. For cell fixation and permeation, 4% paraformaldehyde and 0.1% Triton X-100 were used, respectively. After blocking with 2% BSA for 1 hour, the cells were incubated with primary antibodies on LC3 for 3 hours at 25° C. Then, the cells were incubated with fluorescein isothiocyanate (FITC)-conjugated secondary antibodies (Abcam, Cambridge, MA, USA) for 30 minutes. Finally, fluorescence was captured and analyzed using the Leica fluorescence microscope and ImageJ software.

[4] = parameters: species or system mice; conditions: mouse, in vivo, po
Procedure: (§1) Male nude mice (CAnN.Cg-Foxn1-nu, 4 weeks old, 20 g to 22 g) were purchased from OrientBio (Seongnam, Republic of Korea). The mice were placed in a chamber with conditions maintained at 23° C. and 50% humidity with a period of 12 hours of light and 12 hours of darkness. All animal experiments were conducted according to the National Institutes of Health's Laboratory Animal Care and Use Guidelines (NIH Publications No. 8023, revised 1996) and the Kyung Hee University's Animal Care and Use Guidelines ([…]-441, approval data: Sep. 28, 2021). […] The control group was administered with only 0.9% of general saline during this period. Body weights and tumor volumes of the mice were measured daily in all mice during the study period. All mice were euthanized after the end of the experiments. Blood, liver, spleen, kidney, and tumor tissues were extracted and weighed. In order to obtain the protein of tumor tissue, a portion of the tissue was processed with RIPA buffer containing a protease inhibitor cocktail. Then, the expression degree of a specific protein (determined by Western blot) was determined.

AGS xenografts = test: Tumor size in AGS-xenograft mice; type: in vivo
Procedure: as §1

[5] = test system: AGS xenograft tumor tissue; test: Western blot of tumor tissue of xenograft mice; type: in vivo
Procedure: For whole protein extraction, AGS cells were processed with samples at various concentrations for 24 hours. The cells were dissolved using Pierce™ RIPA buffer (Thermo Fisher Scientific, Rockford, IL, USA) together with protease inhibitor cocktail (GenDEPOT, TX, USA). The cell-dissolved solution formed in the above manner was centrifuged at 12,000 rpm for 20 minutes. The protein was loaded into a 10% SDS-PAGE gel using a protein gel electrophoresis chamber system and transferred to a PVDF membrane (Thermo Fisher Scientific, Rockford, IL, USA). A PBST solution containing 5% skim milk was used to block the membrane at 25° C. for 1 hour. Then, the membrane was incubated overnight at 4° C. with primary antibodies. Finally, the membrane was incubated with the secondary antibodies at 25° C. for 1 hour, and a protein band was detected using West-Q Pico ECL Solution (GenDEPOT, TX, USA). The results were quantified using ImageJ software.
Each mouse was orally administered with 8-paradol and 5-FU once a day for a total of 16 days. The control group was administered with only 0.9% of general saline during this period. Body weights and tumor volumes of the mice were measured daily in all mice during the study period. All mice were euthanized after the end of the experiments. Blood, liver, spleen, kidney, and tumor tissues were extracted and weighed. In order to obtain the protein of tumor tissue, a portion of the tissue was processed with RIPA buffer containing a protease inhibitor cocktail. Then, the expression degree of a specific protein (determined by Western blot) was determined.

[6] = 8-paradol in combination with CQ, compared to 8-paradol solely
[7] = 8-paradol-H 8 mg/kg oral 16 days

With `CCCCCCCCCC(=O)CCc1ccc(O)c(OC)c1` [Purified Compound 3, 8-paradol] the “cytotoxicity to normal cells RAW 264.7” value (RAW 264.7 cells) was “did not express significant cytotoxicity”, the “cytotoxicity on AGS cells by cell morphology and live/dead cell staining” value (AGS cells [1]) was “strong cytotoxicity” and the Mito-SOX (AGS cells [2]; [6]) was “partially reduced”. For the same compound, the segmented mitochondria (AGS cells [2]; [6]) was “reduced”, the “ROS and Mito-SOX production” value (AGS cells [2]; AGS cells) was “overproduction” and the “mitochondrial morphology (Mito-tracker)” value (AGS cells [2]; AGS cells, 24 hours) was “damaged and fragmented mitochondrial morphology”. The “endogenous LC3 spots” value (AGS cells [3]) was “increase”, the “liver and kidney indices versus Con-T group” value [4] was “did not exhibit a significant difference” and the body weight ([4]; 8 mg/kg) was 19.5 g. The “size and weight of the tumor compared to Con-T” value (AGS xenografts; [7]) was “significantly reduced”, the “size, weight, and volume of the tumor compared to the 5-FU group” value (AGS xenografts; [7]) was “further reduced” and the “size of the tumor compared to Con-T” value (AGS xenografts; 8-paradol-M 4 mg/kg oral 16 days) was “significantly reduced”. The “expression degrees of p62 and Bcl-2 proteins” value ([5]; tumor tissue) was “significantly decreased”, the “mitophagy-related proteins LC3, Pink1 and Parkin in tumor tissue” value ([5]; tumor tissue of processed mice) was “significantly increased in a dose-dependent manner” and the “apoptosis-related proteins Bax, Cytochrome-c, Cleaved-caspase-3/caspase-3 and Cleaved-caspase-9/caspase-9” value ([5]; tumor tissue, compared to control group) was “significantly increased”.
